{"source": "patent US20120053130A1", "about": "“COMPOSITION FOR ENHANCING ABSORPTION OF A DRUG AND METHOD” (Bristol-Myers Squibb Company, priority 2010, published 2012)", "key": {"[1]": {"assay": "DDAVP permeation across Calu-3 cells on Transwell filters", "format": "in vitro ADME, human", "conditions": "human", "description": "(§1) Papp values are labeled on top of the bars.\n(§2) Inclusion of LPC further boosted the transport of DDAVP."}, "Calu-3 cells [2]": {"system": "Calu-3 cells", "assay": "DDAVP permeation across Calu-3 cells on Transwell filters", "format": "in vitro ADME, human", "conditions": "for DDAVP Permeability: Phosphatidylcholine (Lecithin) Treatment", "description": "as §1, §2"}, "Calu-3 cells [3]": {"system": "Calu-3 cells", "assay": "TEER measurement (cell integrity and reversibility)", "format": "cell-based, human", "conditions": "for TEER after 2 hr (% initial): Phosphatidylcholine (Lecithin) Treatment", "description": "The asterisk (delete scatters with) (*) represent (delete marker present) those samples where TEER recovered to the original level within 12 hrs after washout of the treatment.\nTransepithelial electrical resistance (TEER) measures the integrity of the epithelial barrier. […] Return of the TEER values to initial levels indicates recovery to baseline barrier properties. TEER measurements were done in confluent highly resistant Calu-3 cells cultured in Transwell filters with handheld STX-2 electrodes connected to EVOM Voltohmmeter. […] After the removal of apical treatment, TEER recovered to the original values."}, "Calu-3 cells [4]": {"system": "Calu-3 cells", "assay": "Alamar Blue acute cytotoxicity assay", "format": "cell-based, human", "description": "FIG. 2 depicts an Alamar Blue Assay—Black bar indicates the % of the cell survival after 2 hrs treatment of LPC at 0-0.25%; gray bar indicates the combination of LPC with 0.5% of C971P.\nThis assay is based on the ability of live cells to enzymatically reduce Alamar blue dye which indicates the relative percentage of cells that survive the exposure to the various treatments. Calu-3 cells exposed to buffer for 2 hr were used as the positive control with 100% cell survival."}, "[5]": {"assay": "Intra-nasal DADLE absorption in rabbits", "format": "in vivo, rabbit", "conditions": "DADLE 1 mg/kg intra-nasal via syringe microsprayer", "description": "Intra-nasal delivery of the model pentapepdide DADLE in water, C971P, LPC or C971P/LPC formulation was studied in rabbits. […] The C971P/LPC formulation enhanced DADLE absorption by >50% compared to LPC alone."}}, "data": [{"compound": "NC(=O)CC[C@@H]1NC(=O)[C@H](Cc2ccccc2)NC(=O)[C@H](Cc2ccc(O)cc2)NC(=O)CCSSC[C@@H](C(=O)N2CCC[C@H]2C(=O)N[C@H](CCCN=C(N)N)C(=O)NCC(N)=O)NC(=O)[C@H](CC(N)=O)NC1=O", "note": "[DDAVP, 1 deamino-8-D-arginin-vasopressin]", "values": [{"measurement": "Papp A→B", "setting": "[1]", "value": "0.04 ± 0.003", "unit": "×10⁻⁶ cm/s"}]}, {"compound": "Phosphatidylcholine [Phosphatidylcholine (Lecithin)]", "values": [{"measurement": "DDAVP permeability enhancement and TEER drop, result in words", "setting": "Calu-3 cells [2]; Calu-3 cells, TEER 2 hr after exposure", "value": "failed to show any measurable enhancement or TEER drop"}, {"measurement": "DDAVP Permeability", "setting": "Calu-3 cells [2]; 1 mM", "value": "0.45 ± 0.03", "unit": "nm/s"}, {"measurement": "DDAVP Permeability", "setting": "Calu-3 cells [2]; 2 mM", "value": "0.44 ± 0.03", "unit": "nm/s"}, {"measurement": "DDAVP Permeability", "setting": "Calu-3 cells [2]; 5 mM", "value": "0.44 ± 0.04", "unit": "nm/s"}, {"measurement": "TEER after 2 hr (% initial)", "setting": "Calu-3 cells [3]; 1 mM", "value": "No change"}, {"measurement": "TEER after 2 hr (% initial)", "setting": "Calu-3 cells [3]; 2 mM", "value": "No change"}, {"measurement": "TEER after 2 hr (% initial)", "setting": "Calu-3 cells [3]; 5 mM", "value": "No change"}]}, {"compound": "L-α-lysophosphatidylcholine [LPC]", "values": [{"measurement": "cell survival", "setting": "Calu-3 cells [4]; 0.05% LPC, 2 hr, without or with 0.5% C971P", "value": "About 82%"}, {"measurement": "cell survival", "setting": "Calu-3 cells [4]; 0.1% LPC, 2 hr, without or with 0.5% C971P", "value": 41, "unit": "%"}, {"measurement": "cell survival, result in words", "setting": "Calu-3 cells [4]; LPC 0-0.25%, 2 hr, without or with 0.5% C971P", "value": "dose-dependent reduction in survival"}, {"measurement": "change in TEER on treatment", "setting": "Calu-3 cells [3]; 2 hours of treatment", "value": "dramatic drop in TEER"}, {"measurement": "DADLE exposure relative to water control", "setting": "[5]", "value": 2.4, "unit": "times"}]}, {"compound": "CCCCCCCCCC(=O)[O-].[Na+]", "note": "[sodium caprate]", "values": [{"measurement": "effect of Carbopol 971P on acute cytotoxicity of the enhancer", "setting": "Calu-3 cells [4]; Alamar Blue cytotoxicity assay in Calu-3 cells", "value": "failed to reduce the acute cytotoxicity"}]}]}
